# Tested on: Kunming mice
# Test: Analgesic activity by acetic acid-induced writhing method
# Format: in vivo
# Conditions: Mus musculus, sc; Dosing concentration 3.5 mg/kg, subcutaneous, 15 min before i.p. 0.7% acetic acid; writhing inhibition vs blank group; read-out: Analgesia rate ± SEM (%)
# Method: The experimental animals were Kunming mice (male:female=1:1), weighed 22±2 g, which were provided by Chengdu dossy experimental animals Co., ltd., China. The mice were kept in the animal room of the School of Life Science and Engineering, Southwest Jiaotong University, where the animal room was set at a temperature of 23±2° C., a humidity of 55±5% and a photoperiod of 16:8 h (L:D). Before the experiment, the mice were freely fed for 2-3 days with water and feed to adapt to the new environment. Then, the mice were treated by water fasting for 12 h. 10 animals were allocated to each group to ensure that there are at least 6 sets of valid data in each group. The animal experiments were carried out in strict accordance with the national regulations on the management of experimental animals.
# The compounds prepared in the examples provided herein and the positive control lappaconitine were all dissolved with 0.1 mol/L HCl according to the amount of the substance ratio of 1:1, and then diluted with physiological saline to a concentration to be determined. The samples to be tested were the compounds prepared the examples provided herein; the positive control was lappaconitine; and the blank control was physiological saline containing 0.1 mol/L HCl.
# The animals in the control groups were subjected to the same treatment as those in the experimental group except that the samples to be test were replaced with physiological saline.
# 10 mice were randomly selected, male:female=1:1, were placed in independent cages. Each mouse was injected subcutaneously with the sample solution mentioned above at a dose of 0.1 mL/10 g body weight. After 15 min, a 0.7% acetic acid solution was intraperitoneally injected. The number of writhing reactions in each mouse within 15 minutes was recorded. The group that the mice were injected with physiological saline subcutaneously was the blank group; the group that the mice were injected with the sample to be tested was the experimental group; and the group that the mice were injected with lappaconitine was the positive group. The analgesic activity was represented by a percentage of the reduced number of writhing compared to the blank group (writhing inhibition rate), which were specifically as follows: writhing inhibition rate (analgesic activity)=(average number of writhing times in the blank group-average number of writhing times in the experimental group)/average number of writhing times in the blank group×100%.
row,Compound,inhibition in vivo at 3.5 mg/kg [%]
1,CCN1C[C@]2(OC(=O)c3ccccc3NS(=O)(=O)c3cccc(OC)c3)CC[C@H](OC)[C@@]34C2CC([C@@H]13)[C@@]1(O)C[C@H](OC)[C@H]2CC4[C@]1(O)[C@H]2OC (stereo partly drawn) [Compound 13],37.1 ± 15.7
2,CCN1C[C@]2(OC(=O)c3ccccc3NS(=O)(=O)c3ccc(C)cc3)CC[C@H](OC)[C@@]34C2CC([C@@H]13)[C@@]1(O)C[C@H](OC)[C@H]2CC4[C@]1(O)[C@H]2OC (stereo partly drawn) [Compound 15],27.7 ± 12.9
3,CCN1C[C@]2(OC(=O)c3ccccc3NS(=O)(=O)c3ccc(OC)cc3)CC[C@H](OC)[C@@]34C2CC([C@@H]13)[C@@]1(O)C[C@H](OC)[C@H]2CC4[C@]1(O)[C@H]2OC (stereo partly drawn) [Compound 20],16.8 ± 6.09
4,CCN1C[C@]2(OC(=O)c3ccccc3NS(=O)(=O)c3ccc(F)cc3)CC[C@H](OC)C34C2CC([C@@H]13)[C@@]1(O)C[C@H](OC)[C@H]2CC4[C@]1(O)[C@H]2OC (stereo partly drawn) [Compound 23],14.7 ± 13.2

# Same assay, conditions: Mus musculus, sc; Dosing concentration 5 mg/kg, subcutaneous, 15 min before i.p. 0.7% acetic acid; writhing inhibition vs blank group; read-out: Analgesia rate ± SEM (%)
row,Compound,inhibition in vivo at 5 mg/kg [%]
1,CCN1C[C@]2(OC(=O)c3ccccc3NC(=O)C3CC3)CC[C@H](OC)C3C2C[C@@H]([C@@H]1C)[C@@]1(O)CC(OC)[C@H]2CC3[C@]1(O)[C@H]2OC (stereo partly drawn) [Compound 39],33.5 ± 7.27

# Same assay, conditions: Mus musculus, sc; Dosing concentration 10 mg/kg, subcutaneous, 15 min before i.p. 0.7% acetic acid; writhing inhibition vs blank group; read-out: Analgesia rate ± SEM (%)
row,Compound,inhibition in vivo at 10 mg/kg [%]
1,CCN1C[C@]2(OC(=O)c3ccccc3NS(=O)(=O)c3ccccc3F)CC[C@H](OC)[C@@]34C2CC([C@@H]13)[C@@]1(O)C[C@H](OC)[C@H]2CC4[C@]1(O)[C@H]2OC (stereo partly drawn) [Compound 6],60.3 ± 5.94
2,CCN1C[C@]2(OC(=O)c3ccccc3NS(=O)(=O)c3cccc(F)c3)CC[C@H](OC)[C@@]34C2CC([C@@H]13)[C@@]1(O)C[C@H](OC)[C@H]2CC4[C@]1(O)[C@H]2OC (stereo partly drawn) [Compound 7],50.2 ± 6.85
3,CCN1C[C@]2(OC(=O)c3ccccc3NS(=O)(=O)c3cccc4ccccc34)CC[C@H](OC)[C@@]34C2CC([C@@H]13)[C@@]1(O)C[C@H](OC)[C@H]2CC4[C@]1(O)[C@H]2OC (stereo partly drawn) [Compound 8],49.2 ± 5
4,CCN1C[C@]2(OC(=O)c3ccccc3NS(=O)(=O)Cc3ccccc3)CC[C@H](OC)[C@@]34C2CC([C@@H]13)[C@@]1(O)C[C@H](OC)[C@H]2CC4[C@]1(O)[C@H]2OC (stereo partly drawn) [Compound 9],43.8 ± 4.5
5,CCN1C[C@]2(OC(=O)c3ccccc3NS(=O)(=O)c3cccc4c(N(C)C)cccc34)CC[C@H](OC)[C@@]34C2CC([C@@H]13)[C@@]1(O)C[C@H](OC)[C@H]2CC4[C@]1(O)[C@H]2OC (stereo partly drawn) [Compound 10],42.5 ± 2.56
6,CCN1C[C@]2(OC(=O)c3ccccc3NS(=O)(=O)Cc3ccc([N+](=O)[O-])cc3)CC[C@H](OC)[C@@]34C2CC([C@@H]13)[C@@]1(O)C[C@H](OC)[C@H]2CC4[C@]1(O)[C@H]2OC (stereo partly drawn) [Compound 11],42.4 ± 5.98
7,CCN1C[C@]2(OC(=O)c3ccccc3NS(=O)(=O)c3cccc4cccnc34)CC[C@H](OC)[C@@]34C2CC([C@@H]13)[C@@]1(O)C[C@H](OC)[C@H]2CC4[C@]1(O)[C@H]2OC (stereo partly drawn) [Compound 12],41.9 ± 3.8
8,CCN1C[C@]2(OC(=O)c3ccccc3NC(=O)OC(C)C)CC[C@H](OC)[C@@]34C2CC([C@@H]13)[C@@]1(O)C[C@H](OC)[C@H]2CC4[C@]1(O)[C@H]2OC (stereo partly drawn) [Compound 14],28.4 ± 4.98
9,C/C=C/S(=O)(=O)Nc1ccccc1C(=O)O[C@@]12CC[C@H](OC)[C@@]34C1CC([C@H]3N(CC)C2)[C@@]1(O)C[C@H](OC)[C@H]2CC4[C@]1(O)[C@H]2OC (stereo partly drawn) [Compound 16],24.4 ± 8.46
10,CCN1C[C@]2(OC(=O)c3ccccc3NS(C)(=O)=O)CC[C@H](OC)[C@@]34C2CC([C@@H]13)[C@@]1(O)C[C@H](OC)[C@H]2CC4[C@]1(O)[C@H]2OC (stereo partly drawn) [Compound 17],22.8 ± 7.58
11,CCN1C[C@]2(OC(=O)c3ccccc3NC(=O)NC)CC[C@H](OC)[C@@]34C2CC([C@@H]13)[C@@]1(O)C[C@H](OC)[C@H]2CC4[C@]1(O)[C@H]2OC (stereo partly drawn) [Compound 18],20 ± 6.67
12,CCN1C[C@]2(OC(=O)c3ccccc3NS(=O)(=O)c3ccc(C(F)(F)F)cc3)CC[C@H](OC)[C@@]34C2CC([C@@H]13)[C@@]1(O)C[C@H](OC)[C@H]2CC4[C@]1(O)[C@H]2OC (stereo partly drawn) [Compound 19],19.4 ± 5
13,CCOC(=O)Nc1ccccc1C(=O)O[C@@]12CC[C@H](OC)C34C1CC([C@H]3N(CC)C2)[C@@]1(O)C[C@H](OC)[C@H]2CC4[C@]1(O)[C@H]2OC (stereo partly drawn) [Compound 21],16.4 ± 11.5
14,CCN1C[C@]2(OC(=O)c3ccccc3NS(=O)(=O)c3ccc(-c4ccccc4)cc3)CC[C@H](OC)C34C2CC([C@@H]13)[C@@]1(O)C[C@H](OC)[C@H]2CC4[C@]1(O)[C@H]2OC (stereo partly drawn) [Compound 22],16.1 ± 10.6
15,C=CCOC(=O)Nc1ccccc1C(=O)O[C@@]12CC[C@H](OC)C34C1CC([C@H]3N(CC)C2)[C@@]1(O)C[C@H](OC)[C@H]2CC4[C@]1(O)[C@H]2OC (stereo partly drawn) [Compound 24],13.3 ± 9
16,CCN1C[C@]2(OC(=O)c3ccccc3NS(=O)(=O)c3ccc(Cl)cc3)CC[C@H](OC)C34C2CC([C@@H]13)[C@@]1(O)C[C@H](OC)[C@H]2CC4[C@]1(O)[C@H]2OC (stereo partly drawn) [Compound 25],11.7 ± 7.78

row,Compound,inhibition in vivo at 10 mg/kg [%]
1,CCN1C[C@]2(OC(=O)c3ccccc3NS(=O)(=O)c3ccc(Br)cc3)CC[C@H](OC)C34C2CC([C@@H]13)[C@@]1(O)C[C@H](OC)[C@H]2CC4[C@]1(O)[C@H]2OC (stereo partly drawn) [Compound 26],11.4 ± 7.58
2,CCN1C[C@]2(OC(=O)c3ccccc3NS(=O)(=O)CC)CC[C@H](OC)C34C2CC([C@@H]13)[C@@]1(O)C[C@H](OC)[C@H]2CC4[C@]1(O)[C@H]2OC (stereo partly drawn) [Compound 27],4.02 ± 9.5
3,CCN1C[C@]2(OC(=O)c3ccccc3NS(=O)(=O)Oc3ccccc3)CC[C@H](OC)C34C2CC([C@@H]13)[C@@]1(O)C[C@H](OC)[C@H]2CC4[C@]1(O)[C@H]2OC (stereo partly drawn) [Compound 28],1.03 ± 10.3
4,CCN1C[C@]2(OC(=O)c3ccccc3NS(=O)(=O)c3cccs3)CC[C@H](OC)C34C2CC([C@@H]13)[C@@]1(O)C[C@H](OC)[C@H]2CC4[C@]1(O)[C@H]2OC (stereo partly drawn) [Compound 29],1.03 ± 5.37
5,CCN1C[C@]2(OC(=O)c3ccccc3NC(=O)C3CCCC3)CC[C@H](OC)C34C2CC([C@@H]13)[C@@]1(O)C[C@H](OC)[C@H]2CC4[C@]1(O)[C@H]2OC (stereo partly drawn) [Compound 33],56.9 ± 3.82
6,CCCCCCC(=O)Nc1ccccc1C(=O)O[C@@]12CC[C@H](OC)C34C1CC([C@H]3N(CC)C2)[C@@]1(O)C[C@H](OC)[C@H]2CC4[C@]1(O)[C@H]2OC (stereo partly drawn) [Compound 34],54.2 ± 6.15
7,CCCOc1ccc(C(=O)Nc2ccccc2C(=O)O[C@@]23CC[C@H](OC)C45C2CC([C@H]4N(CC)C3)[C@@]2(O)C[C@H](OC)[C@H]3CC5[C@]2(O)[C@H]3OC)cc1 (stereo partly drawn) [Compound 35],48.4 ± 6.08
8,CCN1C[C@]2(OC(=O)c3ccccc3NC(=O)c3ccc(C(=O)OC)cc3)CC[C@H](OC)C3C2C[C@@H]([C@@H]1C)[C@@]1(O)CC(OC)[C@H]2CC3[C@]1(O)[C@H]2OC (stereo partly drawn) [Compound 36],36.4 ± 9.54
9,CCN1C[C@]2(OC(=O)c3ccccc3NC(=O)C3CCCCC3)CC[C@H](OC)C3C2C[C@@H]([C@@H]1C)[C@@]1(O)CC(OC)[C@H]2CC3[C@]1(O)[C@H]2OC (stereo partly drawn) [Compound 37],34.5 ± 4.68
10,CCN1C[C@]2(OC(=O)c3ccccc3NC(=O)C3CCOC3)CC[C@H](OC)C3C2C[C@@H]([C@@H]1C)[C@@]1(O)CC(OC)[C@H]2CC3[C@]1(O)[C@H]2OC (stereo partly drawn) [Compound 38],34 ± 8.92
11,CCN1C[C@]2(OC(=O)c3ccccc3NC(=O)c3ccc(Cl)cc3)CC[C@H](OC)C3C2C[C@@H]([C@@H]1C)[C@@]1(O)CC(OC)[C@H]2CC3[C@]1(O)[C@H]2OC (stereo partly drawn) [Compound 40],31.6 ± 12.6
12,CCN1C[C@]2(OC(=O)c3ccccc3NC(=O)c3cnc(Cl)cn3)CC[C@H](OC)C3C2C[C@@H]([C@@H]1C)[C@@]1(O)CC(OC)[C@H]2CC3[C@]1(O)[C@H]2OC (stereo partly drawn) [Compound 41],31.5 ± 8.19
13,CCCC(C)C(=O)Nc1ccccc1C(=O)O[C@@]12CC[C@H](OC)C3C1C[C@@H]([C@H](C)N(CC)C2)[C@@]1(O)CC(OC)[C@H]2CC3[C@]1(O)[C@H]2OC (stereo partly drawn) [Compound 42],31.3 ± 10.7
14,CCN1C[C@]2(OC(=O)c3ccccc3NC(=O)c3ccc(I)cc3)CC[C@H](OC)C3C2C[C@@H]([C@@H]1C)[C@@]1(O)CC(OC)[C@H]2CC3[C@]1(O)[C@H]2OC (stereo partly drawn) [Compound 43],31.1 ± 8.56
15,CCCCc1ccc(C(=O)Nc2ccccc2C(=O)O[C@@]23CC[C@H](OC)C4C2C[C@@H]([C@H](C)N(CC)C3)[C@@]2(O)CC(OC)[C@H]3CC4[C@]2(O)[C@H]3OC)cc1 (stereo partly drawn) [Compound 44],28.2 ± 7.88

# Source: patent publication US11840517B2, “Lappaconitine derivative with analgesic activity, and preparation and application thereof” (priority 2021, dated 2023)
